Experimental data reported in patent publication US7723265B2, “Pesticide compositions containing oxalic acid” (Monsanto Technology, priority 2000, dated 2010).
Where two headings read alike, the source gives them in different places.

Columns and labels:
Format in all cases: in vivo
[1] = tested on: velvetleaf (Abutilon theophrasti, ABUTH); assay: Greenhouse test of herbicidal effectiveness (visual percent control) on velvetleaf
Text: (§1) The following procedure was used for testing compositions of the Examples to determine herbicidal effectiveness, except where otherwise indicated.
(§2) Seeds of the plant species indicated were planted in 85 mm square pots in a soil mix which was previously steam sterilized and prefertilized with a 14-14-14 NPK slow release fertilizer at a rate of 3.6 kg/m3. The pots were placed in a greenhouse with sub-irrigation. About one week after emergence, seedlings were thinned as needed, including removal of any unhealthy or abnormal plants, to create a uniform series of test pots.
The plants were maintained for the duration of the test in the greenhouse where they received a minimum of 14 hours of light per day. […] Exposure temperatures were not precisely controlled but averaged about 27° C. during the day and about 18° C. during the night. Plants were sub-irrigated throughout the test to ensure adequate soil moisture levels.
(§3) Pots were assigned to different treatments in a randomized experimental design with 6 replications. A set of pots was left untreated as a reference against which effects of the treatments could later be evaluated.
(§4) Application of glyphosate compositions was made by spraying with a track sprayer fitted with a 9501E nozzle calibrated to deliver a spray volume of 93 liters per hectare (l/ha) at a pressure of 166 kilopascals (kPa). After treatment, pots were returned to the greenhouse until ready for evaluation.
Treatments were made using dilute aqueous compositions. These could be prepared as spray compositions directly from their ingredients, or by dilution with water of preformulated concentrate compositions.
For evaluation of herbicidal effectiveness, all plants in the test were examined by a single practiced technician, who recorded percent control, a visual measurement of the effectiveness of each treatment by comparison with untreated plants. […] The reported % control values represent the average for all replicates of each treatment.

[2] = tested on: Japanese millet (Echinochloa crus-galli var. frumentae, ECHCF); assay: Herbicidal effectiveness (percent control) on Japanese millet; conditions: comparison as worded in the text of the example
Text: as §1
as §2, with “pots. […]” for “pots.”
as §3
as §4, with “evaluation. […]” for “evaluation.”
(§5) For evaluation of herbicidal effectiveness, all plants in the test were examined by a single practiced technician, who recorded percent control, a visual measurement of the effectiveness of each treatment by comparison with untreated plants. […]

sicklepod (CASOB) = assay: Herbicidal effectiveness (percent control) on sicklepod; conditions: comparison as worded in the text of the example
morningglory (IPOSS) = assay: Herbicidal effectiveness (percent control) on morningglory; conditions: comparison as worded in the text of the example
Text: as §1
as §2, with “pots. […]” for “pots.”
as §3
as §4, with “evaluation. […]” for “evaluation.”
as §5

Prickly sida (SIDSP) = assay: Herbicidal effectiveness (percent control) on prickly sida; conditions: comparison as worded in the text of the example
Text: as §1
as §2, with “pots. […]” for “pots.”
as §3
as §4, with “evaluation. […]” for “evaluation.”
as §5

Indian Mustard (BRSJU) = assay: Herbicidal effectiveness (percent control) on Indian mustard; conditions: comparison as worded in the text of the example
Text: as §1
as §2, with “pots. […]” for “pots.”
as §3
as §4, with “evaluation. […]” for “evaluation.”
as §5

hemp sesbania (SEBEX) = assay: Herbicidal effectiveness (percent control) on hemp sesbania; conditions: comparison as worded in the text of the example
Text: as §1
as §2, with “pots. […]” for “pots.”
as §3
as §4, with “evaluation. […]” for “evaluation.”
as §5

[3] = tested on: Yellow nutsedge (Cyperus esculentus, CYPES); assay: Herbicidal effectiveness (percent control) on yellow nutsedge; conditions: 0.03% oxalic acid in potassium glyphosate tank mixes
velvetleaf (ABUTH) = assay: Rainfastness of Roundup UltraMax with oxalic acid on velvetleaf; conditions: glyphosate a.e.:oxalic acid 15:1; 0.25 inches of rain one or two hours after treatment, or no rain
Protocol: The rainfastedness of a Roundup UltraMax and oxalic acid, at a weight ratio of glyphosate a.e. to oxalic acid of 15:1, was evaluated. The Roundup UltraMax formulations were applied at rates of 300 and 500 g a.e./ha and evaluated with no rain, 0.25 inches of rain at one hour after treatment, and 0.25 inches of rain at two hours after treatment.

[4] = comparison as worded in the text of the example

## NC(=O)CCC(=O)O [Succinamic acid]
[1]; [4]
  herbicidal efficacy on velvetleaf (ABUTH), result in words: antagonistic effect on glyphosate efficacy

## C[N+](C)(C)Cc1ccccc1.[Cl-] [Benzyltrimethylammonium chloride]
[1]; [4]
  herbicidal efficacy on velvetleaf (ABUTH), result in words: better efficacy than did the commercial Roundup UltraMax standard

## O=P(O)(O)O [Phosphoric acid]
[1]; [4]
  herbicidal efficacy on velvetleaf (ABUTH), result in words: did not significantly effect the efficacy
[1]; comparison as worded in the text of the example, listed as phosphoric acid
  herbicidal efficacy on velvetleaf (ABUTH), result in words: did not have significant impact on the efficacy

## O=C(O)CC(O)(CC(=O)O)C(=O)O [Citric acid]
[1]; [4]
  herbicidal efficacy on velvetleaf (ABUTH), result in words: did not significantly effect the efficacy
[1]; comparison as worded in the text of the example, listed as citric acid
  herbicidal efficacy on velvetleaf (ABUTH), result in words: did not have significant impact on the efficacy

## CC(=O)O [Acetic acid]
[1]; [4]
  herbicidal efficacy on velvetleaf (ABUTH), result in words: did not significantly effect the efficacy

## C[N+](C)(C)Cc1ccccc1.[OH-] [Benzyltrimethylammonium hydroxide]
[1]; [4]
  herbicidal efficacy on velvetleaf (ABUTH), result in words: better efficacy than did the commercial Roundup UltraMax standard

## CC(O)C(=O)O (centres unmarked) [Lactic acid]
[1]; [4]
  herbicidal efficacy on velvetleaf (ABUTH), result in words: did not significantly effect the efficacy

## O=C(O)CCCCC(=O)O [adipic acid, Adipic acid]
[1]; [4]
  herbicidal efficacy on velvetleaf (ABUTH), result in words: some increased efficacy

## O=C(O)C(=O)O [Oxalic acid]
[1]
  herbicidal efficacy on velvetleaf (ABUTH), result in words: further increased efficacy
[2]
  herbicidal efficacy on ECHCF (barnyardgrass), result in words: did not significantly enhance glyphosate efficacy on barnyardgrass
Sicklepod (CASOB)
  herbicidal efficacy on sicklepod (CASOB), result in words: did not give statistically significant efficacy enhancement on sicklepod
Morningglory (IPOSS)
  herbicidal efficacy on morningglory (IPOSS), result in words: equally effective in enhancing Roundup UltraMax efficacy on morningglory
Prickly sida (SIDSP)
  herbicidal efficacy on prickly sida (SIDSP), result in words: gave efficacy enhancement
Indian Mustard (BRSJU)
  herbicidal efficacy on Indian mustard (BRSJU), result in words: did not provide significant efficacy enhancement on Indian mustard
Hemp sesbania (SEBEX)
  herbicidal efficacy on hemp sesbania (SEBEX), result in words: equal with the standards regardless of the presence of oxalic acid
[3]
  herbicidal efficacy on yellow nutsedge (CYPES), result in words: did not provide synergy on yellow nutsedge
Velvetleaf (ABUTH)
  rainfastness on velvetleaf, result in words: did not provide any rainfastness properties for Roundup UltraMax on velvetleaf

## O=C(O)[C@H](O)[C@@H](O)[C@H](O)[C@H](O)CO [Gluconic acid]
[1]; [4]
  herbicidal efficacy on velvetleaf (ABUTH), result in words: did not significantly effect the efficacy

## O=C([O-])C(=O)[O-].[K+].[K+] [Dipotassium oxalate, dipotassium oxalate]
[1]; [4]
  herbicidal efficacy on velvetleaf (ABUTH), result in words: enhanced efficacy regardless of the glyphosate salt
[2]
  herbicidal efficacy on ECHCF (barnyardgrass), result in words: relatively ineffective for enhancing efficacy against barnyardgrass

## O=C(O)CCC(=O)O [Succinic acid]
[1]; [4]
  herbicidal efficacy on velvetleaf (ABUTH), result in words: did not significantly effect the efficacy
